Measured values: US20070026080A1, “Manufacturing process for tigecycline” (Wyeth, priority 2005, published 2007)

Test: Strength and degradation profile of tigecycline 20 mg/mL bulk solutions by reversed phase HPLC (effect of temperature, time, pH, dissolved oxygen; Runs A to O)
Assay type: physicochemical
Conditions: 2° C.
Description: The contents of the sample vials are dissolved in diluent. The sample solution is diluted, if necessary, and chromatographed on a reversed phase column using gradient elution. Impurities are determined by comparing the impurity peak areas in the sample preparation chromatogram to the average area of tigecycline peaks in the standard preparation chromatograms obtained concomitantly.
Chromatographic Column—Length about 15 cm, inside diameter about 4.6 mm, packed with Inertsil ODS2, 5 μm size particles or equivalent.
Detector—Ultraviolet spectrophotometric detector capable of operating at 248 nm with a sensitivity of about 0.5 absorbance units full scale.
The results of additional studies to investigate the effect of processing parameters such as temperature, time, and dissolved oxygen content on the purity profile of tigecycline solutions using the following materials, methods and procedures are presented in Tables A to O.
The experiments were run in plastic glove bags under normal laboratory light conditions. Plastic glove boxes will be used to control the headspace of the beakers. The batch size was 200 mL. • 1. Prepare the glove bag with a mixture of nitrogen and air to achieve an oxygen level in the solution as per the design. • 2. Place the jacketed beaker on the magnetic stirrer. Connect it to the cooler. Set the cooler to the desired set point. • 3. Add 200 mL of SWFI in to the beaker. Allow equilibrating. Measure the temperature and oxygen content. When it reaches the desired condition, add accurately weighed API and mix until dissolved. If necessary use spatula to aid dissolution. For pH adjustments, use 4 mL of either 0.1N NaOH or 0.1N HCl and 196 mL of WFI for manufacture. • 4. After complete dissolution, Transfer about 5.5 mL of Solution in vials and stopper them. These vials will be stoppered at the appropriate headspace conditions. Place the vials in appropriate temperature conditions. • 5. Sample the vials at 1, 4, 8, 10, 12 and 24 hours. Send the samples for analysis. Freeze the 10, 12 and 24 samples at −20° C. for analysis the following day. • 6. Measure pH and record color of the solution at each time point. Results
The 1-hour samples were taken directly from the beakers. Samples for later time points were collected in stoppered vials processed in the atmosphere of the bag in order to simulate the headspace conditions then placed in water baths or refrigerator to maintain there respective temperature conditions. This was done to maintain safety in the lab. Disposable plastic glove bags require constant flow of a mixture of nitrogen and air to maintain headspace oxygen level that will result in the desired dissolved oxygen (DO) content in the sample. The pH of samples was measured at each sample points.
Strength and degradation profile was analyzed by HPLC as described above. […] Degradation was slightly higher at higher temperature condition.

[1] = Run #K, 20 mg/mL, pH 8.2, Oxygen 0.1 mg/L, hours 1,4,8,10,12,24 at r6-r11, after 24 hours
[2] = Run #L, pH 7.7, Oxygen = 0.1 mg/L, 1 Hrs
[3] = Run #L, pH 7.7, Oxygen = 0.1 mg/L, 4 Hrs
[4] = Run #L, pH 7.7, Oxygen = 0.1 mg/L, 8 Hrs
[5] = Run #L, pH 7.7, Oxygen = 0.1 mg/L, 10 Hrs
[6] = Run #L, pH 7.7, Oxygen = 0.1 mg/L, 12 Hrs

Question: Which results are given for `CN(C)c1cc(NC(=O)CNC(C)(C)C)c(O)c2c1C[C@H]1C[C@H]3[C@H](N(C)C)C(O)=C(C(N)=O)C(=O)[C@@]3(O)C(O)=C1C2=O` [Tigecycline]?
Answer: RRT 0.74 Epimer [1]: 0.17%; RRT 1.45 [1]: 0.08%; RRT 1.64 Mino [1]: 0.14%; RRT 1.85 MW = 597 [1]: 0.08%; Strength [1]: 19.067 mg/mL; Total [1]: 0.55%; RRT 0.12 MW = 633 [2]: BRL (BRL means below reporting limit (meaning less than 0.05% of tigecycline peak)); RRT 0.23 MW = 572 [2]: BRL (BRL means below reporting limit (meaning less than 0.05% of tigecycline peak)); RRT 0.50 MW = 601 [2]: BRL (BRL means below reporting limit (meaning less than 0.05% of tigecycline peak)); RRT 0.55 MW = 583 [2]: BRL (BRL means below reporting limit (meaning less than 0.05% of tigecycline peak)); RRT 0.58 [2]: 0.08%; RRT 0.64 9-Amino [2]: BRL (BRL means below reporting limit (meaning less than 0.05% of tigecycline peak)); RRT 0.74 Epimer [2]: 0.17%; RRT 0.76 [2]: BRL (BRL means below reporting limit (meaning less than 0.05% of tigecycline peak)); RRT 0.78 MW = 557 [2]: BRL (BRL means below reporting limit (meaning less than 0.05% of tigecycline peak)); RRT 1.12 [2]: BRL (BRL means below reporting limit (meaning less than 0.05% of tigecycline peak)); RRT 1.45 [2]: 0.08%; RRT 1.58 [2]: BRL (BRL means below reporting limit (meaning less than 0.05% of tigecycline peak)); RRT 1.64 Mino [2]: 0.14%; RRT 1.67 MW = 556 [2]: BRL (BRL means below reporting limit (meaning less than 0.05% of tigecycline peak)); RRT 1.85 MW = 597 [2]: 0.07%; Strength [2]: 19.23 mg/mL; Total [2]: 0.53%; RRT 0.12 MW = 633 [3]: BRL (BRL means below reporting limit (meaning less than 0.05% of tigecycline peak)); RRT 0.23 MW = 572 [3]: BRL (BRL means below reporting limit (meaning less than 0.05% of tigecycline peak)); RRT 0.50 MW = 601 [3]: BRL (BRL means below reporting limit (meaning less than 0.05% of tigecycline peak)); RRT 0.55 MW = 583 [3]: BRL (BRL means below reporting limit (meaning less than 0.05% of tigecycline peak)); RRT 0.58 [3]: 0.08%; RRT 0.64 9-Amino [3]: BRL (BRL means below reporting limit (meaning less than 0.05% of tigecycline peak)); RRT 0.74 Epimer [3]: 0.17%; RRT 0.76 [3]: BRL (BRL means below reporting limit (meaning less than 0.05% of tigecycline peak)); RRT 0.78 MW = 557 [3]: BRL (BRL means below reporting limit (meaning less than 0.05% of tigecycline peak)); RRT 1.12 [3]: BRL (BRL means below reporting limit (meaning less than 0.05% of tigecycline peak)); RRT 1.45 [3]: 0.07%; RRT 1.58 [3]: BRL (BRL means below reporting limit (meaning less than 0.05% of tigecycline peak)); RRT 1.64 Mino [3]: 0.15%; RRT 1.67 MW = 556 [3]: BRL (BRL means below reporting limit (meaning less than 0.05% of tigecycline peak)); RRT 1.85 MW = 597 [3]: 0.08%; Strength [3]: 19.053 mg/mL; Total [3]: 0.54%; RRT 0.12 MW = 633 [4]: BRL (BRL means below reporting limit (meaning less than 0.05% of tigecycline peak)); RRT 0.23 MW = 572 [4]: BRL (BRL means below reporting limit (meaning less than 0.05% of tigecycline peak)); RRT 0.50 MW = 601 [4]: BRL (BRL means below reporting limit (meaning less than 0.05% of tigecycline peak)); RRT 0.55 MW = 583 [4]: BRL (BRL means below reporting limit (meaning less than 0.05% of tigecycline peak)); RRT 0.58 [4]: 0.08%; RRT 0.64 9-Amino [4]: BRL (BRL means below reporting limit (meaning less than 0.05% of tigecycline peak)); RRT 0.74 Epimer [4]: 0.17%; RRT 0.76 [4]: 0.05%; RRT 0.78 MW = 557 [4]: BRL (BRL means below reporting limit (meaning less than 0.05% of tigecycline peak)); RRT 1.12 [4]: BRL (BRL means below reporting limit (meaning less than 0.05% of tigecycline peak)); RRT 1.45 [4]: 0.08%; RRT 1.58 [4]: BRL (BRL means below reporting limit (meaning less than 0.05% of tigecycline peak)); RRT 1.64 Mino [4]: 0.13%; RRT 1.67 MW = 556 [4]: BRL (BRL means below reporting limit (meaning less than 0.05% of tigecycline peak)); RRT 1.85 MW = 597 [4]: 0.08%; Strength [4]: 18.988 mg/mL; Total [4]: 0.60%; RRT 0.12 MW = 633 [5]: BRL (BRL means below reporting limit (meaning less than 0.05% of tigecycline peak)); RRT 0.23 MW = 572 [5]: BRL (BRL means below reporting limit (meaning less than 0.05% of tigecycline peak)); RRT 0.50 MW = 601 [5]: BRL (BRL means below reporting limit (meaning less than 0.05% of tigecycline peak)); RRT 0.55 MW = 583 [5]: BRL (BRL means below reporting limit (meaning less than 0.05% of tigecycline peak)); RRT 0.58 [5]: 0.07%; RRT 0.64 9-Amino [5]: BRL (BRL means below reporting limit (meaning less than 0.05% of tigecycline peak)); RRT 0.74 Epimer [5]: 0.22%; RRT 0.76 [5]: 0.05%; RRT 0.78 MW = 557 [5]: BRL (BRL means below reporting limit (meaning less than 0.05% of tigecycline peak)); RRT 1.12 [5]: BRL (BRL means below reporting limit (meaning less than 0.05% of tigecycline peak)); RRT 1.45 [5]: 0.07%; RRT 1.58 [5]: BRL (BRL means below reporting limit (meaning less than 0.05% of tigecycline peak)); RRT 1.64 Mino [5]: 0.13%; RRT 1.67 MW = 556 [5]: BRL (BRL means below reporting limit (meaning less than 0.05% of tigecycline peak)); RRT 1.85 MW = 597 [5]: 0.08%; Strength [5]: 19.424 mg/mL; Total [5]: 0.62%; RRT 0.12 MW = 633 [6]: BRL (BRL means below reporting limit (meaning less than 0.05% of tigecycline peak)); RRT 0.23 MW = 572 [6]: BRL (BRL means below reporting limit (meaning less than 0.05% of tigecycline peak)); RRT 0.50 MW = 601 [6]: BRL (BRL means below reporting limit (meaning less than 0.05% of tigecycline peak)); RRT 0.55 MW = 583 [6]: BRL (BRL means below reporting limit (meaning less than 0.05% of tigecycline peak)); RRT 0.58 [6]: 0.07%; RRT 0.64 9-Amino [6]: BRL (BRL means below reporting limit (meaning less than 0.05% of tigecycline peak)); RRT 0.74 Epimer [6]: 0.23%; RRT 0.76 [6]: BRL (BRL means below reporting limit (meaning less than 0.05% of tigecycline peak)); RRT 0.78 MW = 557 [6]: BRL (BRL means below reporting limit (meaning less than 0.05% of tigecycline peak)); RRT 1.12 [6]: BRL (BRL means below reporting limit (meaning less than 0.05% of tigecycline peak))
